For data set [1] the following is noted: FVB, mouse, brain, oral, 20 mg/kg.
Data set [2] in a line: Equilibrium solubility of elacridar in microemulsion components. The data set is classed as physicochemical. To be noted: 37 °C, oil or lipid, thermodynamic from solid.
For data set [3] the following is noted: mouse, cited from earlier work.

Converted amounts (≈) assume the structure as drawn. Read-outs that look alike come from different tables or passages of the source.

Broadly, the solubility is the concentration that dissolves in the medium under given conditions. A high value points to much dissolved substance. In general, bioavailability refers to the share of a dose that reaches the circulation, judged against a reference dose that is usually intravenous.

In data set [1], `C#Cc1cccc(Nc2ncnc3cc(OCCOC)c(OCCOC)cc23)c1` [erlotinib] registered a concentration at 1 h of 76.4 ± 7.8 ng/mL.

Take `COc1cc2c(cc1OC)CN(CCc1ccc(NC(=O)c3cccc4c(=O)c5cccc(OC)c5[nH]c34)cc1)CC2` [elacridar, N-(4-(2-(1,2,3,4-tetrahydro-6,7-dimethoxy-2-isoquinolinyl)ethyl)phenyl)-9,10-dihydro-5-methoxy-9-oxo-4-acridine carboxamide]: the solubility at 24 h in data set [2] (Captex 300 (oil)) and in data set [2] (Captex 355 (oil)) was 300 ± 1 µg/mL (≈ 532 µM) throughout. The bioavailability is on record as about 1% in data set [3] (intraperitoneal dose, suspension) and “about 22%” in data set [3] (oral dose, suspension at 100 mg/kg).
